Test results taken from patent publication US20250034139A1, “AMINE COMPOUNDS HAVING ANTI-INFLAMMATORY, ANTIFUNGAL, ANTIPARASITIC, AND ANTICANCER ACTIVITY” (PHARMA CINQ, LLC, priority 2013, published 2025).
≈ marks a conversion by molar mass, not a printed value. Where two headings read alike, the source gives them in different places.

Assays:
Rhizopus strains = experiment: Example N: MIC and MFC (CLSI) against Rhizopus; type: cell-based, Rhizopus spp.; conditions: for MIC50 / MIC: Rhizopus; for MIC: read-out: MIC 100%; for MFC: range over Rhizopus strains, in 48 hr
Procedure: (§1) The objective of this study was to determine the antifungal activity of eight experimental compounds against a representative panel of fungal isolates, including Candida albicans, C. glabrata, Cryptococcus neoformans, Trichophyton rubrum, Aspergillus fumigatus, and Rhizopus spp. Antifungal activity was measured by minimum inhibitory concentration (MIC) and minimum fungicidal concentration (MFC).
(§2) Three recent clinical strains of each species, taken from the culture collection at the Center for Medical Mycology, Case Western University, were tested.
(§3) Compounds in powder form were dissolved in DMSO. Serial dilutions of each compound were then prepared in RPMI-1640 in a range of […].
(§4) MIC testing was performed according to the CLSI M27-A3 and M38-A2 standards for the susceptibility testing of yeasts and filamentous fungi, respectively (1, 2). Test isolates were subcultured from frozen slants onto potato dextrose agar plates (Trichophyton rubrum was subcultured onto oatmeal plates for conidia production) and checked for purity. Inocula were then prepared in RPMI-1640 (YNB for Cryptococcus) to a concentration of 0.5-2.5×10^3 colony-forming units (CFU)/ml or 0.4-5×10^4 conidia/ml for yeast and filamentous fungi, respectively.
(§5) MFC determinations were performed according to the modifications previously described by Canton et al. and Ghannoum and Isham. (3, 4) Specifically, the total contents of each clear well from the MIC assay were subcultured onto potato dextrose agar. To avoid antifungal carryover, the aliquots were allowed to soak into the agar and then were streaked for isolation once dry, thus removing the cells from the drug source.

[1] = tested on: Cryptococcus neoformans (serotype A); experiment: Example L: Cryptococcus neoformans (serotype A) growth inhibition; type: cell-based; conditions: Cryptococcus neoformans; for MIC: read-out: MIC, uM (concentration for maximum - 99% of inhibition)
Procedure: Cryptococcus neoformans (serotype A) were plated in 96 well plates with 144 μl/well of 5×10e5 CFU/ml in YPD growth medium. Diluted compounds were then added to each well with concentration ranged from 0.05 to 10 μM as final concentration in duplicates. The plates were inoculated at 30° C. Two readings of OD at 600 nm were measured after 18 hr and […] treatments.
C12-imidazol had relative weak activity against Cryptococcus serotype A at low concentration. Data plotted was based on 26 hour reading because 18 hour reading was too low.
• 1. Pick a single colony of Cryptococcus from the Sabouraud Dextrose agar plate using the inoculum loop and inoculate into a 125 ml flask containing 25 ml of YPD growth medium • 2. Incubate at 30° C. with shaking at 220 rpm for 24 hours with loosen lid to allow air in and facilitates growth. • 3. Examine an aliquot of the culture under a microscope for yeast cell morphology and lack of bacterial contamination. • 4. Dilute the overnight culture with YPD medium at 1:100 dilution and count the number of cells as 8×10^6 cfu/ml. • 5. Make a final concentration of cells suspension at 5×10^5 cfu/ml in YPD medium after the stock culture had been stored at 4° C. for 3 days. • 6. Plate 144 μl/well of 5×10^5 cfu/ml cell suspension on 96-well plates. Part-II: Cryptococcus Growth Inhibition Testing with Compounds • 1. From 10 mM DMSO stock solutions, make serial dilutions of compounds to 0.0013, 0.0025, 0.0125, 0.025, 0.05, 0.125 and 0.25 mM solution • 2. Add 6 ul each of diluted compound solutions per well in duplicates. The final concentrations were 0, 0.05, 0.1, 0.5, 1.0, 2.0, 5.0 and 10 micromolar. • 3. Incubated all plates at 30° C. overnight with 175 rpm shaking. • 4. Read absorbance at OD600 after 18 and 26 hours for each plate. • 5. Calculated the % inhibition and IC50 of each compound against the untreated cell.

Candida glabrata strains = experiment: Example N: MIC and MFC (CLSI) against Candida glabrata; type: cell-based; conditions: for MIC50 / MIC / MFC: Nakaseomyces glabratus; for MIC: read-out: MIC 100%; for MFC: range over Candida glabrata strains, in 48 hr
Procedure: as §1, §2, §3, §4, §5

[2] = tested on: imiquimod-induced dermatitis; conditions: for Ear thickness, Mean ± SEM: imiquimod-treated mice; for PASI Score, Mean ± SEM: scale 0-12
Procedure: Topical imiquimod (IMQ), a toll-like receptor agonist, has been established as a model of Inflammatory skin diseases including psoriasis and atopic dermatitis. Dermal inflammatory changes and gene expression in mice treated with topical imiquimod mimic human psoriasis and dermatitis (van der Fits et al., 2009; Swindell et al., 2011). The effect of a set of compounds of the invention were tested in a mouse model of imiquimod-induced dermatitis, with topical tacrolimus and dexamethasone as comparators for assessing safety and efficacy relative to standard agents used to treat dermatitis in humans.
Commercial 0.1% tacrolimus ointment (ProTopic™[…]) was also used as an active comparator. Petrolatum containing 10% ethanol was used as a control treatment.
Female Balb/C mice (8 weeks old) were randomized and divided into groups of 5 animals each. Polyethylene collars were affixed to the mice to prevent them from easily scratching their ears. 5% imiquimod was applied to both ears of each mouse (20 microliters per ear) daily for 5 days, and then every other day for the full duration of the study. […] On day 7 after initiation of imiquimod, treatment with topical agents was started. Both ears of each mouse were treated with test ointments, with one compound per mouse.
Ear thickness and PASI assessments (Psoriasis Area and Severity Index, a standard psoriasis scoring system) were recorded twice per week throughout the study. The PASI score comprises the sum of evaluations of swelling, erythema and scaling on scales from 0 to 4; the maximum PASI score is 12, and the minimum, in unaffected skin, is 0).

[3] = read-out: IC50, uM (concentration for 50% of inhibition), OD of 26 hour reading, 30° C., XLfit
[4] = OD of 26 hour reading, 30° C., XLfit
[5] = topical ointment 0.06% active drug (dexamethasone 0.03%, tacrolimus 0.1%)

| SMILES | MIC50 (Rhizopus strains; 24 h) | MIC (Rhizopus strains; 24 h) | MIC50 (Rhizopus strains; 48 h) | MIC (Rhizopus strains; 48 h) | IC50 [1, 3] | MIC [1, 4] | MIC50 (Candida glabrata strains; 24 h) | MIC (Candida glabrata strains; 24 h) | MIC50 (Candida glabrata strains; 48 h) | MIC (Candida glabrata strains; 48 h) | D BW (g) ([2]; mouse, in vivo) | MFC (Candida glabrata strains) | Ear thickness, Mean ± SEM [2, 5] | Body Weight (mean ± SEM), Final ([2]; mouse, in vivo) | Body Weight (mean ± SEM), Initial ([2]; mouse, in vivo) | PASI Score, Mean ± SEM [2, 5] | MFC (Rhizopus strains) | other results |
| --- | --- | --- | --- | --- | --- | --- | --- | --- | --- | --- | --- | --- | --- | --- | --- | --- | --- | --- |
| c1ccc(Oc2cccc(CNc3ncnc4ccccc34)c2)cc1 [BM, N-(3-Phenoxybenzyl)quinazolin-4-amine] |  |  |  |  | 0.69 µM | 17.5 µM (≈ 5.73 µg/mL) |  |  |  |  | +0.1 g |  | 0.577 ± 0.019 | 20.9 ± 0.6 g | 20.8 ± 0.7 g | 9.250 ± 0.183 |  | IC50 ([1]; Macrophage, direct inhibition, values of the earlier study (Table 25), read-out: IC50 value (μM) for inhibition of fungal growth, No macrophages): 0.69 µM |
| CCCCCCOCCCCCCCCNc1ccnc2cc(Cl)ccc12 [AW, 7-Chloro-N-[8-(hexyloxy)octyl]quinolin-4-amine] | 4 µg/mL (≈ 10.2 µM) | 4 to 8 µg/mL (≈ 10.2 to 20.5 µM) | 4 to 8 µg/mL (≈ 10.2 to 20.5 µM) | 8 µg/mL (≈ 20.5 µM) | 1.74 µM | 13.8 µM (≈ 5.38 µg/mL) | 4 µg/mL (≈ 10.2 µM) | 8 µg/mL (≈ 20.5 µM) | 8 µg/mL (≈ 20.5 µM) | 8 to 16 µg/mL (≈ 20.5 to 40.9 µM) |  | 16 to 32 µg/mL (≈ 40.9 to 81.8 µM) |  |  |  |  |  |  |
| COc1ccc(OCCCCCCCCNc2ncnc3ccccc23)cc1 [AE, N-[8-(4-Methoxyphenoxy)octyl]quinazolin-4-amine] | < 0.12 µg/mL | 1 to 2 µg/mL (≈ 2.64 to 5.27 µM) | 1 to 2 µg/mL (≈ 2.64 to 5.27 µM) | 1 to 4 µg/mL (≈ 2.64 to 10.5 µM) | 0.54 µM | 14.7 µM (≈ 5.59 µg/mL) | 4 µg/mL (≈ 10.5 µM) | 4 µg/mL (≈ 10.5 µM) | 4 to 8 µg/mL (≈ 10.5 to 21.1 µM) | 4 to 8 µg/mL (≈ 10.5 to 21.1 µM) | +0.4 g | 16 to 64 µg/mL (≈ 42.2 to 169 µM) | 0.846 ± 0.023 | 21.3 ± 0.4 g | 20.9 ± 0.5 g | 11.550 ± 0.281 | 64 µg/mL (≈ 169 µM) | MIC at 50% inhibition (Rhizopus strains; 24 hrs): < 0.12 µg/mL |
| c1ccc(Oc2cccc(CNc3ccnc4ccccc34)c2)cc1 [AF, N-(3-Phenoxybenzyl)quinolin-4-amine] |  |  |  |  |  |  |  |  |  |  | +0.4 g |  | 0.355 ± 0.005 |  |  | 3.575 ± 0.158 |  | Ear thickness, Mean ± SEM ([2]; topical ointment AF 0.6%): 0.390 ± 0.008; D BW ([2]; mouse, in vivo): -0.4 g; Hair growth on the imiquimod-affected head area, in words ([2]; mouse, in vivo): hair growth was maintained; PASI Score, Mean ± SEM ([2]; topical ointment AF 0.6%): 4.875 ± 0.155 |

Continued, in another order:

| MIC50 (Rhizopus strains; 24 h) | MIC (Rhizopus strains; 24 h) | MIC50 (Rhizopus strains; 48 h) | MIC (Rhizopus strains; 48 h) | IC50 [1, 3] | MIC [1, 4] | MIC50 (Candida glabrata strains; 24 h) | MIC (Candida glabrata strains; 24 h) | MIC50 (Candida glabrata strains; 48 h) | MIC (Candida glabrata strains; 48 h) | D BW (g) ([2]; mouse, in vivo) | SMILES | MFC (Candida glabrata strains) | Ear thickness, Mean ± SEM [2, 5] | Body Weight (mean ± SEM), Final ([2]; mouse, in vivo) | Body Weight (mean ± SEM), Initial ([2]; mouse, in vivo) | PASI Score, Mean ± SEM [2, 5] | MFC (Rhizopus strains) | other results |
| --- | --- | --- | --- | --- | --- | --- | --- | --- | --- | --- | --- | --- | --- | --- | --- | --- | --- | --- |
| 4 µg/mL (≈ 10.4 µM) | 4 µg/mL (≈ 10.4 µM) | 4 to 8 µg/mL (≈ 10.4 to 20.8 µM) | 8 µg/mL (≈ 20.8 µM) | 3.01 µM | 10.5 µM (≈ 4.03 µg/mL) | 2 µg/mL (≈ 5.2 µM) | 2 µg/mL (≈ 5.2 µM) | 2 to 4 µg/mL (≈ 5.2 to 10.4 µM) | 4 µg/mL (≈ 10.4 µM) |  | CCCCCCOCCCCCCCCCCNc1ccnc2ccccc12 [Compound AL, N-[10-(Hexyloxy)decyl]quinolin-4-amine] | 4 µg/mL (≈ 10.4 µM) |  |  |  |  |  |  |
| 1 to 2 µg/mL (≈ 3.52 to 7.03 µM) | 2 µg/mL (≈ 7.03 µM) | 2 to 4 µg/mL (≈ 7.03 to 14.1 µM) | 2 to 4 µg/mL (≈ 7.03 to 14.1 µM) | 2.14 µM | 11.4 µM (≈ 3.23 µg/mL) | 0.25 to 1 µg/mL (≈ 0.879 to 3.52 µM) | 0.5 to 2 µg/mL (≈ 1.76 to 7.03 µM) | 0.5 to 2 µg/mL (≈ 1.76 to 7.03 µM) | 0.5 to 2 µg/mL (≈ 1.76 to 7.03 µM) |  | CCCCCCCCCCNc1ccnc2ccccc12 [Compound AG, N-(Decyl)quinolin-4-amine] | 4 µg/mL (≈ 14.1 µM) |  |  |  |  | 4 to 16 µg/mL (≈ 14.1 to 56.2 µM) | cidal activity (MFC within 4 dilutions of the MIC), in words (Candida glabrata strains; 3 strains): cidal against all of the C. glabrata strains tested |
